Assays:
Normal human fibroblasts [1] = assay: Test of fibroblast activation function (MTT formazan); format: cell-based; settings: positive control, DMEM containing 5 percent FBS, 48 hours, control = 100, n = 5
Description: 3-(4,5-Dimethyl-2-thiazolyl)-2,5-diphenyl-2H-tetrazolium […] (MTT) cleaves NADPH or NADH produced in energy metabolic processes in mitochondria within cells to produce formazan. Thus, the quantity of formazan produced was adopted as an indicator of cell activation function.
Normal human fibroblasts were seeded onto a 96-well microplate at a cell density of 3.0×10^4 cells/well. After culturing for 24 hours in Dulbecco's modified eagle medium (DMEM) containing 1 percent fetal bovine serum (FBS), the medium was replaced with DMEM containing 1 percent FBS containing a freeze-dried product of grape sap in the concentration shown in Table 1. A positive control (PC) in the form of DMEM containing 5 percent FBS was employed. […]
The cells were washed, the formazan produced in the cells was dissolved in 2-propanol, and a microplate reader was employed to measure the absorbance at 550 nm and 650 nm. The difference between the two was calculated to evaluate the quantity of formazan generated within the cells. Cell activation function was denoted by an activation index (%) with the absorbance (ABS.) of cultivated cells to which no sample was added (control) being denoted as 100. […] The p value was determined to be significant when p<0.05.

Normal human fibroblasts [2] = assay: Test of collagen synthesis promoting function of fibroblasts (type I collagen ELISA, BCA protein); format: cell-based; settings: positive control, concentration not given, 48 hours
Description: The collagen synthesis of fibroblasts was evaluated by quantifying the amount of secreted type I collagen in culture supernatant by ELISA.
Normal human fibroblasts were seeded onto a 96-well microplate at a cell density of 3.0×10^4 cells/well. After culturing for 24 hours in DMEM containing 0.5 percent FBS, the medium was replaced with DMEM containing 0.5 percent FBS containing a freeze-dried product of grape sap in the concentration shown in Table 2. A PC in the form of magnesium ascorbyl phosphate (VCPMg) was employed. After 48 hours, the culture supernatant was collected and the amount of type I collagen was quantified by ELISA.
Culture supernatant and calibration curve-use type I collagen were placed in a 96-well plate and coated overnight at 4° C. […] Twenty minutes later, a microplate reader was employed to measure the absorbance at 405 nm. The quantity of collagen in the culture supernatant was calculated from a calibration curve measured with the same plate.
At the same time, the quantity of cell protein was quantified using BCA protein assay reagent (PIERCE). The quantity of collagen in the culture supernatant was divided by the quantity of protein to calculate the quantity of collagen per unit of protein, which was adopted as the quantity of collagen synthesized by the cells. […] The p value was determined to be significant when p<0.05. […]

O=C1O[C@H]([C@@H](O)CO)C([O-])=C1OP(=O)([O-])[O-].O=C1O[C@H]([C@@H](O)CO)C([O-])=C1OP(=O)([O-])[O-].[Mg+2].[Mg+2].[Mg+2] [PC, magnesium ascorbyl phosphate]
Activation index (%) Mean ± SD (Normal human fibroblasts [1]): 116.0 ± 2.9% | Collagen amount (ng/μg protein) Mean ± SD (Normal human fibroblasts [2]): 32.9 ± 4.8 ng/μg protein | Protein amount (μg) Mean ± SD (Normal human fibroblasts [2]): 11.2 ± 0.2 µg
